Measurements from PMC10175918 (Communications Biology, 2023).
Entries after “also recorded” stand apart in the source; their conditions may differ. Where two headings read alike, the source gives them in different places.

Assays:
Assay in all cases: TGFα-shedding assay-based GPCR screening with chimeric Gα subunit proteins
Format in all cases: cell-based
[1] = test system: 348 GPCRs
[2] = biological target: T1, 348 GPCRs (Homo sapiens, UniProt Q8TDT2); conditions: 10µM, Favipiravir 100μM
T1 construct: expressed in transfected cells; host or cells: HEK293A
T1 sequence (Q8TDT2 whole entry): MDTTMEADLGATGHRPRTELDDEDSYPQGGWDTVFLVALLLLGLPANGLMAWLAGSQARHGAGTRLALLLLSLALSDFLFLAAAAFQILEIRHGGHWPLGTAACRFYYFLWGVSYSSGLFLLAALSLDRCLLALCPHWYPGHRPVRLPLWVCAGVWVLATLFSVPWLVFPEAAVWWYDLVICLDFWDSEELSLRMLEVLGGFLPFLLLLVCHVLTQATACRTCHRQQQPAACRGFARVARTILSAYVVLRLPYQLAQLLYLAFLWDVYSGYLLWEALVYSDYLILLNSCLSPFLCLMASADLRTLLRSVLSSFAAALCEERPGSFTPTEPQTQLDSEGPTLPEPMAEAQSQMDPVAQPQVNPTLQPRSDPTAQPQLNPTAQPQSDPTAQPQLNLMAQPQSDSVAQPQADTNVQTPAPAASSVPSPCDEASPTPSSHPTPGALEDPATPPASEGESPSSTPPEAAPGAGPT

[3] = biological target: 348 GPCRs (Homo sapiens, UniProt P31391); conditions: 10µM, Favipiravir 100μM
Sequence of 348 GPCRs (Homo sapiens, UniProt P31391) (P31391 whole entry): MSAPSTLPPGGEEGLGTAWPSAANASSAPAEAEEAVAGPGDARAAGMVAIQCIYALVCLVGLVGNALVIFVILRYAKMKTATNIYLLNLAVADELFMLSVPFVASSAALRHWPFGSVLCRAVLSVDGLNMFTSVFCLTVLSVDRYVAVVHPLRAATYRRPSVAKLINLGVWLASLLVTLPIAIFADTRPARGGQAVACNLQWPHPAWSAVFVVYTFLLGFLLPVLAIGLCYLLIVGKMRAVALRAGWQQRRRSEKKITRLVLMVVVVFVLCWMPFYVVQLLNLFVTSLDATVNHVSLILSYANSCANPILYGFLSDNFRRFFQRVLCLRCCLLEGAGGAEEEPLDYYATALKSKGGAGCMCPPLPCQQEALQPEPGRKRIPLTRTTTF

[4] = biological target: T2, 348 GPCRs (Homo sapiens, UniProt P25025)
T2 sequence (P25025 1-360): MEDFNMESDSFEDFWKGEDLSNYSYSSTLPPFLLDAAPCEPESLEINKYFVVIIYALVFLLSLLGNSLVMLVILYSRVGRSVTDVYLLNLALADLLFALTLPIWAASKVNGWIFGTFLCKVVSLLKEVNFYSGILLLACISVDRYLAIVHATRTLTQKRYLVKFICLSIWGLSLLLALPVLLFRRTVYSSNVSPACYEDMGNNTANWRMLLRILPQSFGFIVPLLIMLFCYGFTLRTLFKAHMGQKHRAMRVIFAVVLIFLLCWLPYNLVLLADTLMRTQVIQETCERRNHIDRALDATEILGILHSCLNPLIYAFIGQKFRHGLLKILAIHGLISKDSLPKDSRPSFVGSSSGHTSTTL

[5] = biological target: T3, 348 GPCRs (Homo sapiens, UniProt Q7Z602); conditions: 10µM, Favipiravir 100μM
T3 construct: expressed in transfected cells; host or cells: HEK293A
T3 sequence (Q7Z602 whole entry): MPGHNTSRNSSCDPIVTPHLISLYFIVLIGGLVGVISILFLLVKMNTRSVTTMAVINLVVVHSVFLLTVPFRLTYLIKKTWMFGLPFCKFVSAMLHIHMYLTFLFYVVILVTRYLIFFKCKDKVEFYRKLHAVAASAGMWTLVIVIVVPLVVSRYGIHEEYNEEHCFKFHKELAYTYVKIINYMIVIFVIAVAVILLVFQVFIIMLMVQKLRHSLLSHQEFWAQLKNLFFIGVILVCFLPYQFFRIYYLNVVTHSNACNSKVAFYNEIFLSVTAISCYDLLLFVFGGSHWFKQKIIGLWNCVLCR

[6] = biological target: T4, 348 GPCRs (Homo sapiens, UniProt P35408); conditions: 10µM, Favipiravir 100μM
T4 construct: expressed in transfected cells; host or cells: HEK293A
T4 sequence (P35408 whole entry): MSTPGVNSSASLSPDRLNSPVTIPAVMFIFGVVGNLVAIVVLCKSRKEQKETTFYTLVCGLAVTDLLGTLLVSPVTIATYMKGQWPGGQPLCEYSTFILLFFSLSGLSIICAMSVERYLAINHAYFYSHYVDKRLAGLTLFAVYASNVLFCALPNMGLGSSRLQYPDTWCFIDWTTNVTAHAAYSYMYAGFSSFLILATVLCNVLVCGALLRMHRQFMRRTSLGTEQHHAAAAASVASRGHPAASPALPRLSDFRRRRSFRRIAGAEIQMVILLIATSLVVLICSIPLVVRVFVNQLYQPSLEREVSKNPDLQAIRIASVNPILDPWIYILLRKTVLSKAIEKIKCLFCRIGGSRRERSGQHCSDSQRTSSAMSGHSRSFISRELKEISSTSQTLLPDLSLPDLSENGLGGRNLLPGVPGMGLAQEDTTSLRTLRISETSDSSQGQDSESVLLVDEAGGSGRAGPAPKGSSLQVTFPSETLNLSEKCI

[7] = biological target: T5, 348 GPCRs (Homo sapiens, UniProt Q6W5P4); conditions: 10µM, Favipiravir 100μM
T5 construct: expressed in transfected cells; host or cells: HEK293A
T5 sequence (Q6W5P4 1-371): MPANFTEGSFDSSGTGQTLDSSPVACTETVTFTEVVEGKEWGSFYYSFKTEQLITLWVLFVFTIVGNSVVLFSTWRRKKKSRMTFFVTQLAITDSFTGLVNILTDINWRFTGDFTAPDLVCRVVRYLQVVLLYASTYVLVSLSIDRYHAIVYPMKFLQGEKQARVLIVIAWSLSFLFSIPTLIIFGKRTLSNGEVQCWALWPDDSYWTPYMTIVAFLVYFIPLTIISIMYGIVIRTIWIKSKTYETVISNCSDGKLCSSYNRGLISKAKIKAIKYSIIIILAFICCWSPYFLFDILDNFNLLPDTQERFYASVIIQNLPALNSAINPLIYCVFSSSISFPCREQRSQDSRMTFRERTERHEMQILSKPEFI

[8] = biological target: T6, 348 GPCRs (Homo sapiens, UniProt P08912)
T6 construct: expressed in transfected cells; host or cells: HEK293A
T6 sequence (P08912 1-532): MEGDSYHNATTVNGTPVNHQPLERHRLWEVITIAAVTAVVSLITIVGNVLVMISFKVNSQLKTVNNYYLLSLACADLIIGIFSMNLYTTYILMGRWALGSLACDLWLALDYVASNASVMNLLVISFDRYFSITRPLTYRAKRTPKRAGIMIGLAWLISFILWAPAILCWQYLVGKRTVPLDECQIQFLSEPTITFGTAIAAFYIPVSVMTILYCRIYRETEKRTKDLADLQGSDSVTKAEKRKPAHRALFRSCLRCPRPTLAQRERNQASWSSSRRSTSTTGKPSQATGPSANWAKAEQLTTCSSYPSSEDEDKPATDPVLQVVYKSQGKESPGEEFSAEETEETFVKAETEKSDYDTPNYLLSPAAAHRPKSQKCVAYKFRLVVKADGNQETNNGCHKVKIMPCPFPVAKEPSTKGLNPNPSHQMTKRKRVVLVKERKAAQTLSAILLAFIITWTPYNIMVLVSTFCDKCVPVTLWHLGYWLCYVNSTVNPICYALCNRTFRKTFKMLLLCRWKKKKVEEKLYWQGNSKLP

[9] = biological target: 348 GPCRs (Homo sapiens, UniProt P35462); conditions: 10µM, Favipiravir 100μM
Sequence of 348 GPCRs (Homo sapiens, UniProt P35462) (P35462 whole entry): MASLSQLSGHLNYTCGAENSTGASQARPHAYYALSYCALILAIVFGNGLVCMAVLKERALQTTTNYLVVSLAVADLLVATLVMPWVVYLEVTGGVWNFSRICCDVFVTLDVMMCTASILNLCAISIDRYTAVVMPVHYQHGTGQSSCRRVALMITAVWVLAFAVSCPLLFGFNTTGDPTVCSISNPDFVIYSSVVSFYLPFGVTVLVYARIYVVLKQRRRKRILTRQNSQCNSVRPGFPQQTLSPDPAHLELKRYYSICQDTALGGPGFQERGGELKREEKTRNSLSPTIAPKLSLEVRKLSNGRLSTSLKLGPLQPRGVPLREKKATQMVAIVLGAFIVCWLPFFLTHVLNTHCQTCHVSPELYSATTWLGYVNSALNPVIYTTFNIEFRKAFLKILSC

[10] = biological target: T7, 348 GPCRs (Homo sapiens, UniProt P30411); conditions: 10µM, Favipiravir 100μM
T7 sequence (P30411 1-391): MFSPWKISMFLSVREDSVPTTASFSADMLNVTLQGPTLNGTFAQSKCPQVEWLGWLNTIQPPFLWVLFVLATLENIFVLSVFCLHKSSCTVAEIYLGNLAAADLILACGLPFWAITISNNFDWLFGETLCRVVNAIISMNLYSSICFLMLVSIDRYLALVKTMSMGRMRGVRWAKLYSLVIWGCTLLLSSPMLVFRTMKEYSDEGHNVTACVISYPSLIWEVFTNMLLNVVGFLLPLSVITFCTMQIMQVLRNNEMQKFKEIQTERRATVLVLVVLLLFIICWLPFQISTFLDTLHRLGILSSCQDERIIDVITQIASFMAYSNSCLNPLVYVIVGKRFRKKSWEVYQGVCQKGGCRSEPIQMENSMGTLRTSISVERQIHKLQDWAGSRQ

[11] = biological target: 348 GPCRs (Homo sapiens, UniProt Q8TDS4)
Sequence of 348 GPCRs (Homo sapiens, UniProt Q8TDS4) (Q8TDS4 whole entry): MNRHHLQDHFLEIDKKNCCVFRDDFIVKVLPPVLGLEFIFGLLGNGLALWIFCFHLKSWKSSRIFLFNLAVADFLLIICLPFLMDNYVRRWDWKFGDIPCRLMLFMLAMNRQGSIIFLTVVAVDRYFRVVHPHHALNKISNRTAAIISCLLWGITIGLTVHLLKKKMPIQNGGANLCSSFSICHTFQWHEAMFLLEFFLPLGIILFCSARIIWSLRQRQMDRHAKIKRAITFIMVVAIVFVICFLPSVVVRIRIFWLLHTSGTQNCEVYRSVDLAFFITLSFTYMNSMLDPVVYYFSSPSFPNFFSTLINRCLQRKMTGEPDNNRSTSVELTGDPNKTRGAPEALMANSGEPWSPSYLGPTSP

[12] = EP3 iso6 (prostaglandin E receptor 3 iso6), 10µM, Favipiravir 100μM
[13] = GPCR GPR68 long (G protein-coupled receptor 68 long), 10µM
[14] = GPCR LTB4R2B (leukotriene B4 receptor 2), 10µM
[15] = GPCR P2Y13 short (purinergic receptor P2Y, G-protein coupled, 13 short), 10µM
[16] = GPR17 short (G protein-coupled receptor 17 short), 10µM, Favipiravir 100μM
[17] = read-out: % GPCR activation compared to TPA, GPR152 (G Protein-Coupled Receptor 152)
[18] = read-out: % GPCR activation compared to TPA, SSTR4 (somatostatin receptor 4)
[19] = read-out: % GPCR activation compared to TPA, GPCR CXCR2 (C-X-C motif chemokine receptor 2)
[20] = read-out: % GPCR activation compared to TPA, GPR141 (G Protein-Coupled Receptor 141)
[21] = read-out: % GPCR activation compared to TPA, EP4 (prostaglandin E receptor 4)
[22] = read-out: % GPCR activation compared to TPA, NPS (neuropeptide S receptor 1)
[23] = read-out: % GPCR activation compared to TPA, GPCR M5 (Muscarinic acetylcholine receptor M5)
[24] = read-out: % GPCR activation compared to TPA, D3 (dopamine receptor D3)
[25] = read-out: % GPCR activation compared to TPA, B2 (bradykinin receptor B2)
[26] = HCA2, read-out: % GPCR activation compared to TPA, GPCR GPR109A (hydroxycarboxylic acid receptor 2 (HCA2))
[27] = GPR152 (G Protein-Coupled Receptor 152), read-out: % GPCR activation compared to TPA
[28] = SSTR4 (somatostatin receptor 4), read-out: % GPCR activation compared to TPA
[29] = GPCR CXCR2 (C-X-C motif chemokine receptor 2), read-out: % GPCR activation compared to TPA
[30] = GPR141 (G Protein-Coupled Receptor 141), read-out: % GPCR activation compared to TPA
[31] = EP4 (prostaglandin E receptor 4), read-out: % GPCR activation compared to TPA
[32] = NPS (neuropeptide S receptor 1), read-out: % GPCR activation compared to TPA
[33] = GPCR M5 (Muscarinic acetylcholine receptor M5), read-out: % GPCR activation compared to TPA
[34] = D3 (dopamine receptor D3), read-out: % GPCR activation compared to TPA
[35] = B2 (bradykinin receptor B2), read-out: % GPCR activation compared to TPA
[36] = HCA2, GPCR GPR109A (hydroxycarboxylic acid receptor 2 (HCA2)), read-out: % GPCR activation compared to TPA

Row | SMILES | % GPCR activation compared to TPA [1, 12] [%] | % GPCR activation compared to TPA [1, 13] [%] | % GPCR activation compared to TPA [1, 14] [%] | % GPCR activation compared to TPA [1, 15] [%] | % GPCR activation compared to TPA [1, 16] [%] | activation at 10 µM [2, 17] [%] | activation at 10 µM [3, 18] [%] | activation at 10 µM [4, 19] [%] | activation at 100 µM [5, 20] [%] | activation at 10 µM [6, 21] [%] | activation at 10 µM [7, 22] [%] | activation at 10 µM [8, 23] [%] | activation at 100 µM [9, 24] [%] | activation at 10 µM [2, 27] [%] | activation at 10 µM [3, 28] [%] | activation at 100 µM [5, 30] [%] | activation at 10 µM [6, 31] [%] | activation at 10 µM [7, 32] [%] | activation at 100 µM [9, 34] [%] | activation at 10 µM [10, 35] [%] | further results
1 | CC(C)OC(=O)[C@H](C)N[P@](=O)(OC[C@H]1O[C@@H](n2ccc(=O)[nH]c2=O)[C@](C)(F)[C@@H]1O)Oc1ccccc1 [sofosbuvir] | -2.666 | -162.099 | 1.863 | -2.679 | 1.814 | 1.86 | 0.279 | -1.43 | -0.925 | 0.58 | 0.112 | -1.43 | -1.16 |  |  |  |  |  |  |  | activation at 10 µM [10, 25]: 0.561%; activation at 10 µM [11, 26]: -29.6%
2 | CC(C)C(=O)OC[C@H]1O[C@@H](n2ccc(NO)nc2=O)[C@H](O)[C@@H]1O [molnupiravir] | -0.792 | -159.537 | -0.2056 | -3.484 | 0.1735 |  |  |  |  |  |  |  |  | -1.29 | -1.09 | -1.57 | 0.931 | -0.116 | 0.0207 | 1.04 | activation at 10 µM [4, 29]: 0.926%; activation at 10 µM [8, 33]: -0.639%; activation at 10 µM [11, 36]: -37.5%
3 | NC(=O)c1nc(F)cnc1O [favipiravir, 6-fluoro-3-hydroxy-2-pyrazinecarboxamide] | 0.2801 |  |  |  | -0.5013 |  |  |  |  |  |  |  |  | -0.401 | -0.164 | -0.646 | -1.55 | -0.693 | 7.52 | 1.08 | % GPCR activation compared to TPA ([1]; GPCR GPR68 long (G protein-coupled receptor 68 long), 100μM): 5.02%; % GPCR activation compared to TPA ([1]; GPCR LTB4R2B (leukotriene B4 receptor 2), 100μM): -0.02753%; % GPCR activation compared to TPA ([1]; GPCR P2Y13 short (purinergic receptor P2Y, G-protein coupled, 13 short), 100μM): 1.698%; activation at 100 µM ([4]; GPCR CXCR2 (C-X-C motif chemokine receptor 2), 100μM, read-out: % GPCR activation compared to TPA): -0.272%; activation at 100 µM ([8]; GPCR M5 (Muscarinic acetylcholine receptor M5), 100μM, read-out: % GPCR activation compared to TPA): 0.695%; activation at 100 µM ([11]; HCA2, GPCR GPR109A (hydroxycarboxylic acid receptor 2 (HCA2)), 100μM, read-out: % GPCR activation compared to TPA): 1.41%
4 | N#C[C@@]1(c2ccc3c(N)ncnn23)O[C@H](CO)[C@@H](O)[C@H]1O [GS441524] | -0.4587 | 3.274 | -0.1822 | 0.9471 | 2.36 |  |  |  |  |  |  |  |  | -0.232 | -0.36 | -0.309 | -2.87 | -1.43 | 4.08 | -3 | activation at 10 µM [4, 29]: 0.398%; activation at 10 µM [8, 33]: 2.9%; activation at 10 µM [11, 36]: 0.689%
5 | CCC(CC)COC(=O)[C@H](C)N[P@](=O)(OC[C@H]1O[C@@](C#N)(c2ccc3c(N)ncnn23)[C@H](O)[C@@H]1O)Oc1ccccc1 [remdesivir] | 1.469 | -2.927 | -0.9744 | 2.55 | 2.96 | -0.751 | 0.732 | 2.41 | -1.45 | 4.74 | -0.795 | -0.595 | 7.67 |  |  |  |  |  |  |  | GPCR activation in screening against 348 GPCRs ([1]; 10 μM remdesivir, molnupiravir, 100 μM favipiravir, chimeric Gα): selectively activate UTS2R; also recorded: selective activator for the urotensin-II receptor (UTS2R); effect on adenosine receptors ([1]; GPCR assay, adenosine receptors): no effect on adenosine receptors; activation at 10 µM [10, 25]: 1.57%; activation at 10 µM [11, 26]: 2.36%
